Patent publication US20040171019A1, “PIN1 peptidyl-prolyl isomerase polypeptides, their crystal structures, and use thereof for drug design” (Agouron Pharmaceuticals, Inc., priority 2002, published 2004)
Numbered stars: 1 amine (or outer) side, 2 acyl side, 3 side chain; on linkers, the order of the positions; unused ones are H or OH. Square brackets hold non-standard residues; d marks the D form. Peptide text beside a SMILES is read from it. * marks the point of attachment. pS = N[C@@H](COP(=O)(O)O)C(=O)O; pNA = O=[N+]([O-])c1ccc(N*)cc1; Suc = O=C(CCC(=O)[*:2])[*:1]

Experiments:
[1] = target: T1, His-tagged construct of the K77Q/K82Q PPIase domain (Homo sapiens, UniProt Q13526, K77Q/K82Q); test: Isothermal titration calorimetry; format: binding
T1 construct: made in house; host or cells: E. coli BL21(DE3)
Description: The working volume of the ITC cell was 1.414 mL. Both solutions contained 25 mM MOPS pH 7.5, 0.5 mM TCEP and 2.0% DMSO (vol./vol.). The PPIase polypeptide solution was prepared by exhaustively dialyzing a stock protein solution against several changes of dialysis buffer (25 mM MOPS pH 7.5, 0.5 mM TCEP) at 4.0° C.
After dialysis the protein was centrifuged to remove any particulate matter. The protein concentration was then determined by absorbance using an extinction coefficient that had been calculated based on the tryptophan and tyrosine content of the protein. The dialysed protein was then diluted with the dialysate and 2.0% (volume to volume) DMSO was added to yield a final concentration of 200 μM protein. […] An aliquot of the stock solution was diluted in DMSO and then an appropriate volume of dialysate was added. The final DMSO concentration was 2.0% (volume to volume) and the final compound concentration was 10 μM.
Appropriate control titrations (buffer into buffer, buffer into compound, and protein into buffer) were performed to determine the heats of dilution. Prior to fitting for the binding parameters, the observed heats of binding were corrected for heat of dilution of the protein. […] The data were fit using the ORIGIN® software package (MicroCal) provided with the ITC (FIG. 6). […] The One Set of Sites model with ligand in the cell was selected.

PPIase domain of PIN1 = target: T2, PPIase domain of PIN1 (Homo sapiens, UniProt Q13526); test: Fluorescence polarization competition assay with fluorescein-tagged Pintide; format: binding; details: free Pintide as inhibitor control
T2 construct: made in house; host or cells: E. coli BL21(DE3)
From the text: This assay is based on fluorescence polarization. In fluorescence polarization detection, monochromatic light passes through a polarized filter and excites molecules in the sample well. Only those molecules that are oriented properly in the polarized plane absorb light, become excited, and subsequently emit light. The emitted light is detected after passing through polarizing filters that are oriented parallel and perpendicular to the plane of excitation. Since small molecules rotate more quickly than large molecules (e.g. in the form of a bound complex), the parallel (S) and perpendicular (P) measurements are closer and the difference is lower. Fluorescence polarization is measured in mP (milliP) which is defined using the following equation: […]
For the PIN1 assay, library compounds compete with fluorescein-tagged Pintide to bind the PPIase domain of PIN1. After a short incubation, samples are assayed using fluorescence polarization. The excitation and emission of fluorescein occur at 485 nm and 530 nm, repectively. […]
Experiments were performed in either 96-well plates or 384-well black flat bottom polystyrene non-binding surface (NBS) plates (Costar). […] Excitation was measured at 485 nm and emission was measured at 530 nm. Readings were taken in a Florescence Polarization reader (Molecular Devices Analyst). […]

mutant PPIase K77Q/K82Q = target: T3, mutant PPIase K77Q/K82Q (Homo sapiens, UniProt Q13526, K77Q/K82Q); test: PIN1 peptidyl-prolyl isomerase assay (protease-coupled, Suc-AEPF-pNA); format: biochemical; details: 15° C., read-out: Km for this substrate
T3 construct: 6xHis (N, cleaved yes); made in house; host or cells: E. coli BL21(DE3)
Description: PIN1 is a phosphorylation dependent peptidyl-prolyl isomerase. […] Cleavage of the isomerized peptide releases para-nitroanaline, which can be monitored by an increase in absorbance at 390 nm. […] To minimize the spontaneous isomerization of the peptide substrate, reactions are performed at 15° C.
The rate constant k is linearly proportional to the concentration of active enzyme present in the assay mixture once the rate constant for the spontaneous isomerization is subtracted.

human PIN1 = human PIN1 (Homo sapiens, UniProt Q13526); details: Hennig et al., Biochemistry 37: 5953-5960 (1998); cited from earlier work
[2] = system: Suc-AEPF-pNA peptide substrate; test: Peptidyl-prolyl isomerase activity of PIN1 polypeptides without inhibitor; format: biochemical; details: 0.033 nM enzyme, 100 μM Suc-AEPF-pNA
From the text: PIN1 is a phosphorylation dependent peptidyl-prolyl isomerase. Peptidyl-prolyl ismomerase activity for the peptides of the invention can be measured using a spectrophotometric assay based on the coupled chymotrypsin catalyzed, cis-trans conformation dependent cleavage of a para-nitroanaline-containing peptide substrate. This rotamase assay is described by Kofron et al. (Biochemistry 30, […] (1991)) and its application to PIN1 isomerase activity is described by Yaffe et al. (Science 278, 1957-1960 (1997)). Cleavage of the isomerized peptide releases para-nitroanaline, which can be monitored by an increase in absorbance at 390 nm. The PIN1 peptide substrate, succinyl-alanine-[…]-proline-phenylalanine-paranitroaniline (Suc-AEPF-pNA) (Bachem California, Inc., Torrence, Calif.) is kept in a predominantly cis conformation with an anhydrous TFE (trifluorethanol)/LiCl (lithium chloride) solvent mixture. […]
Peptidyl-prolyl isomerase reactions were carried out in 25 mM MOPS [3-(N-Morpholino)propanesufonic acid], pH 7.5, 0.5 mM TCEP [Tris(2-carboxyethyl)phosphine hydrochloride], 2% DMSO, 5 μl of a 25 mg/ml solution of Subtilisin Carlsberg Protease (Sigma), […], and 100 μM Suc-AEPF-pNA peptide substrate. […] The absorbance at 390 nm was monitored continuously until all substrate had been converted to the cleaved product. […]

[3] = ITC, 15.0° C., duplicate, ± standard deviation
[4] = best fit of corrected binding data, FIG. 6

O=C(N[C@@H](COP(=O)(O)O)Cc1ccccc1)c1cc2ccccc2s1 [Compound I, Phosphoric acid mono-{(R)-2-[(1-benzo[b]thiophen-2-yl-methanoyl)-amino]-3-phenyl-propyl} ester]
enthalpy of binding [1, 3]: −7.3 (±0.1) kcal/mol
stoichiometry [1, 3]: 0.854 (±0.003)
C value [1, 4]: 142
ka [1, 4]: 1.42e+07 M⁻¹

CC(C)C[C@H](NC(=O)[C@H](Cc1ccccc1)NC(=O)[C@@H]1CCCN1C(=O)[C@H](COP(=O)(O)O)NC(=O)[C@H](Cc1ccc(O)cc1)NC(=O)[C@H](Cc1ccccc1)NC(=O)[C@@H](N)Cc1c[nH]c2ccccc12)C(=O)N[C@@H](CCC(=O)O)C(=O)O [Pintide] (H-WFY[pS]PFLE-OH)
IC50 (PPIase domain of PIN1): 7 to 10 µM

C[C@H](NC(=O)CCC(=O)O)C(=O)N[C@@H](CCC(=O)O)C(=O)N1CCC[C@H]1C(=O)N[C@@H](Cc1ccccc1)C(=O)Nc1ccc([N+](=O)[O-])cc1 [Suc-AEPF-pNA] (Suc-AEPF-pNA)
Km (mutant PPIase K77Q/K82Q): > 100 µM

O=C1C=CC(=O)c2c(O)cccc21 [juglone, 5-hydroxy-1,4-naphthoquinone]
inhibition of parvulins, including human PIN1 (human PIN1): selectively inhibits

wild-type PIN1: wild type human PIN1, a phosphorylation dependent peptidyl-prolyl isomerase
rate [2]: 0.2
